According to US20210254106A1, “ENGINEERING B LYMPHOCYTES BY UTILIZING ENDOGENOUS ACTIVATION-INDUCED CYTIDINE DEAMINASE” (INSTITUTE FOR RESEARCH IN BIOMEDICINE, priority 2018, published 2021):

Tested on: naïve B cells (IgM+ IgD+ CD27− IgG− IgA−)
Experiment: in vitro acquisition of natural switch region inserts in stimulated naïve B cells with DNA repair inhibitors
Assay type: cell-based, human
Conditions: Olaparip 4 nM or SCR7 100 nM in culture medium vs DMSO control; B cells stimulated with K562L (CD40L) and IL4; harvested day 10; 50 000 sorted IgG switched B cells; γ-switch region PCR and MinION sequencing
Procedure: To this end, B cells were isolated by magnetic beads using anti-CD19 beads, followed by FACS-sorting and selection of naïve B cells (IgM^+ IgD^+ CD27^− IgG^− IgA^−). Cells were plated in 48 well plates at concentrations of 50 000 B cells/ml and stimulated with 25 000 irradiated K562L/ml and 8 ng/ml IL4. The DNA repair inhibitor Olaparip (4 nM), SCR7 (100 nM) or DMSO (1:100) as control were added to the culture medium. At day 3 and day 6 the culture medium was replaced which fresh medium supplemented with IL4 and inhibitors. Cells were harvested at day 10 and stained with fluorescently labeled anti-CD19 and anti-IgG antibodies. Switched IgG B cell were sorted by flow cytometry and gDNA was isolation using a commercial kit. Genomic DNA of 50 000 sorted cells were used for γ-switch region PCR amplification and MINION sequencing as described above. Inserts frequencies were analyzed with a bioinformatics pipeline (Pieper K, Tan J, Piccoli L, Foglierini M, Barbieri S, Chen Y, Silacci-Fregni C, Wolf T, Jarrossay D, Anderle M, Abdi A, Ndungu F M, Doumbo O K, Traore B, Tran T M, Jongo S, Zenklusen I, Crompton P D, Daubenberger C, Bull P C, Sallusto F, Lanzavecchia A: Public antibodies to malaria antigens generated by two LAIR1 insertion modalities. Nature. 2017. Aug. 31; 548(7669):597-601).

| Compound | natural switch insert frequencies |
| --- | --- |
| O=C(c1cc(Cc2n[nH]c(=O)c3ccccc23)ccc1F)N1CCN(C(=O)C2CC2)CC1 [Olaparib] | elevated |
| SCR7 | decreased |
